The results in this text go back to patent US11925629B2, “Heterocyclic inhibitors of ERK1 and ERK2 and their use in the treatment of cancer” (Asana Biosciences, LLC, priority 2015, dated 2024).

What all share (format): cell-based, human
In assay [1] the test system is phosphorylation of RSK1(S380) (the downstream target of ERK1/2). Briefly: Phospho-RSK1(S380) ELISA assay in HT-29 cells. The settings on record: read-out: Mechanistic Cell Assay RSK1 Phos HT29 IC50. In outline:
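IC50 values derive from a variable-slope sigmoidal fit of sandwich-ELISA signal (450 nm) for RSK1 Ser380 phosphorylation. The cells were B-RafV600E HT-29 colorectal line, exposed to serially diluted compound for 2 h after overnight seeding, then lysed at 4° C.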

The subject of assay [2] is HCT116 (colorectal carcinoma, K Ras G13D) cells. Briefly: Cell proliferation (Alamar Blue) assay, HCT116. The settings on record: Homo sapiens, HCT-116, HCT116 cells. A digest of the protocol: (§1)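 5000 cells/well, 16-24 h attach; cpd 0.0005-10 uM (3-fold dilns) x 72 h, 37° C./5% CO2; Alamar Blue 1× 1-3 h; fluor 540/590 nm; IC50, variable-slope sigmoid.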
For orientation: The colour change of resazurin is a common sign of viable cells or microbes.

In assay [3] the test system is HT-29 (colorectal carcinoma, B-RafV600E) cells. Briefly: Cell proliferation (Alamar Blue) assay, HT-29. A digest of the protocol: as §1
Where [4] appears, read: Homo sapiens, HT-29, HT29 cells, phospho-RSK1(S380).
Setting [5] is: Homo sapiens, HT-29, HT29 cells.

Like-named read-outs stand apart in the source and are kept apart here. Bounds are passed on as bounds.

For `CCC(COC)Nc1ncc(C)c(-n2ccc(C(=O)NC(CO)c3cccc(Cl)c3)c2)n1` (stereo not drawn) [Example 127, N-(1-(3-chloro-phenyl)-2-hydroxy-ethyl)-1-(2-((1-methoxy-butan-2-yl)amino)-5-methyl-pyrimidin-4-yl)-1H-pyrrole-3-carboxamide], the IC50 (usually the point on the concentration scale where inhibition reaches its midpoint) in assay [1] (setting [4]) is 500 to 2500 nM; in assay [2], more than 2500 nM; in assay [3] (setting [5]) it was more than 2500 nM.

Consider `Cc1cnc(Nc2ccc3c(c2)CCO3)nc1-n1ccc(C(=O)NC(CO)c2cccc(Cl)c2)c1` (stereo not drawn) [Example 137, N-(1-(3-chloro-phenyl)-2-hydroxy-ethyl)-1-(2-((2,3-dihydro-benzofuran-5-yl)-mino)-5-methyl-pyrimidin-4-yl)-1H-pyrrole-3-carboxamide], for which the values for the IC50 in assay [1] (setting [4]), in assay [2] and in assay [3] (setting [5]) were 100 to 250 nM, 100 to 250 nM and 250 to 500 nM, respectively.

As for `Cc1cnc(NC2CCOCC2)nc1-n1cnc(C(=O)NCc2ccc(Cl)c(CO)c2)c1` [Example 330, N-(4-chloro-3-(hydroxymethyl)benzyl)-1-(5-methyl-2-((tetrahydro-2H-pyran-4-yl)amino)pyrimidin-4-yl)-1H-imidazole-4-carboxamide], the IC50 in assay [1] (setting [5]) is 250 to 500 nM; in assay [2] it was more than 2500 nM; in assay [3] (setting [5]), 500 to 2500 nM.

`CC[C@H](CO)Nc1cc(-n2cnc(C(=O)N[C@H](CO)c3cccc(Cl)c3)c2)ccn1` [Cmpd 105, N-((S)-1-(3-chlorophenyl)-2-hydroxy-ethyl)-1-(2-(((R)-1-hydroxy-butan-2-yl)amino)pyridin-4-yl)-1H-imidazole-4-carboxamide]: the IC50 is 100 to 250 nM in assay [1] (setting [4]), more than 2500 nM in assay [2] and more than 2500 nM in assay [3] (setting [5]).

With `Cc1cnc(NC2CCOC2)nc1-n1ccc(C(=O)NC(CO)c2ccccc2)c1` (stereo not drawn) [Example 128, N-(2-hydroxy-1-phenylethyl)-1-(5-methyl-2-((tetrahydro-furan-3-yl)amino)pyrimidin-4-yl)-1H-pyrrole-3-carboxamide], the IC50 in assay [1] (setting [4]) is 500 to 2500 nM; in assay [2], more than 2500 nM; in assay [3] (setting [5]), 500 to 2500 nM.

Consider `C#Cc1cccc(Nc2nccc(-n3cc(NC(=O)N[C@H](CO)c4cccc(Cl)c4)cn3)n2)c1` [Example 38, (S)-1-(1-(3-chlorophenyl)-2-hydroxy-ethyl)-3-(1-(2-((3-ethynyl-phenyl)amino)pyrimidin-4-yl)-1H-pyrazol-4-yl)urea], for which the IC50 in assay [1] (setting [4]), in assay [2] and in assay [3] (setting [5]) was more than 2500 nM each time.

On to `O=C(Nc1cnn(-c2ccnc(Nc3ccc4c(c3)OCO4)n2)c1)N[C@H](CO)c1cccc(Cl)c1` [Example 21, (S)-1-(1-(2-(benzo[d][1,3]dioxol-5-ylamino)-pyrimidin-4-yl)-1H-pyrazol-4-yl)-3-(1-(3-chlorophenyl)-2-hydroxyethyl) urea], for which the IC50 in assay [1] (setting [4]), in assay [2] and in assay [3] (setting [5]) was more than 2500 nM in each case.

For `Cc1cc(Nc2ncc(C)c(-n3ccc(C(=O)NC(CO)c4cccc(Cl)c4)c3)n2)ccc1C1CCNCC1` (stereo not drawn) [Example 182, N-(1-(3-chlorophenyl)-2-hydroxyethyl)-1-(5-methyl-2-((3-methyl-4-(piperidin-4-yl)phenyl)amino)pyrimidin-4-yl)-1H-pyrrole-3-carboxamide], the figures for the IC50 in assay [1] (setting [4]), in assay [2] and in assay [3] (setting [5]) were 500 to 2500 nM, 250 to 500 nM and 500 to 2500 nM, respectively.

As for `Cc1cnc(Nc2ccc(F)cc2)nc1-n1ccc(C(=O)NC(CO)c2cccc(Cl)c2)c1` (stereo not drawn) [Example 113, N-(1-(3-chloro-phenyl)-2-hydroxy-ethyl)-1-(2-((4-fluoro-phenyl)amino)-5-methyl-pyrimidin-4-yl)-1H-pyrrole-3-carboxamide], the IC50 in assay [1] (setting [4]), in assay [2] and in assay [3] (setting [5]) was 100 to 250 nM throughout.

Consider `Cc1cnc(N[C@H]2CCOC2)nc1-n1ccc(C(=O)N[C@H](CO)c2cccc(Cl)c2)c1` [Example 161, N-((S)-1-(3-chlorophenyl)-2-hydroxy-ethyl)-1-(5-methyl-2-(((S)-tetra-hydrofuran-3-yl)amino)pyrimidin-4-yl)-1H-pyrrole-3-carboxamide], for which the IC50 in assay [1] (setting [4]) was not above 100 nM; in assay [2] it was 250 to 500 nM; in assay [3] (setting [5]), not above 100 nM.

As for `Cc1cnc(Nc2ccccc2)cc1-n1ccc(C(=O)NC(CO)c2ccccc2)c1` (stereo not drawn) [Cmpd 74, N-(2-hydroxy-1-phenylethyl)-1-(5-methyl-2-(phenyl-amino)pyridin-4-yl)-1H-pyrrole-3-carboxamide], the figures for the IC50 in assay [1] (setting [4]), in assay [2] and in assay [3] (setting [5]) were 500 to 2500 nM, more than 2500 nM and 500 to 2500 nM, respectively.

As for `Cc1cnc(Nc2ccc(N3CCOCC3)cc2)nc1-n1ccc(C(=O)NC(CO)c2cccc(Cl)c2)c1` (stereo not drawn) [Example 205, N-(1-(3-chlorophenyl)-2-hydroxyethyl)-1-(5-methyl-2-((4-morpholinophenyl)amino)pyrimidin-4-yl)-1H-pyrrole-3-carboxamide], the IC50 fell in the range of 100 to 250 nM in assay [1] (setting [4]), 250 to 500 nM in assay [2] and 100 to 250 nM in assay [3] (setting [5]).

`Cc1cnc(Nc2ccc3c(c2)OC(C)(C)O3)nc1-n1ccc(C(=O)NC(CO)c2cccc(Cl)c2)c1` (stereo not drawn) [Example 96, N-(1-(3-chloro-phenyl)-2-hydroxy-ethyl)-1-(2-((2,2-dimethyl-benzo[d][1,3]dioxol-5-yl)amino)-5-methyl-pyrimidin-4-yl)-1H-pyrrole-3-carboxamide]: the IC50 in assay [1] (setting [4]) is 250 to 500 nM; in assay [2], 500 to 2500 nM; in assay [3] (setting [5]) it was 250 to 500 nM.

As for `CN(C(=O)Nc1cnn(-c2ccnc(NC3CC3)n2)c1)[C@H](CO)c1ccccc1` [Example 18, (S)-3-(1-(2-(cyclopropyl-amino)pyrimidin-4-yl)-1H-pyrazol-4-yl)-1-(2-hydroxy-1-phenylethyl)-1-methylurea], the IC50 in assay [1] (setting [4]), in assay [2] and in assay [3] (setting [5]) was more than 2500 nM throughout.

With `Cc1cnc(Nc2ccc(N3CCNCC3)cc2)nc1-n1ccc(C(=O)NC(CO)c2ccccc2)c1` (stereo not drawn) [Example 73, N-(2-hydroxy-1-phenylethyl)-1-(5-methyl-2-((4-(piperazin-1-yl)-phenyl)amino)pyrimidin-4-yl)-1H-pyrrole-3-carboxamide], the IC50 in assay [1] (setting [4]) was more than 2500 nM; in assay [2] it was 500 to 2500 nM; in assay [3] (setting [5]) it was 500 to 2500 nM.

In the case of `Cc1cnc(NC2CCCOC2)nc1-n1ccc(C(=O)N[C@H](CO)c2cccc(Cl)c2)c1` (stereo partly drawn) [Example 152, N-((S)-1-(3-chlorophenyl)-2-hydroxy-ethyl)-1-(5-methyl-2-((tetrahydro-2H-pyran-3-yl)amino)pyrimidin-4-yl)-1H-pyrrole-3-carboxamide], the IC50 lay in the range of 100 to 250 nM in assay [1] (HT29 cells, phospho-RSK1(S380)); 500 to 2500 nM in assay [2]; 100 to 250 nM in assay [3] (HT29 cells).

`Cc1cnc(NCC2CCCO2)nc1-n1ccc(C(=O)N[C@H](CO)c2cccc(Cl)c2)c1` (stereo partly drawn) [Example 190, N-((S)-1-(3-chlorophenyl)-2-hydroxyethyl)-1-(5-methyl-2-(((tetrahydrofuran-2-yl)methyl)amino)pyrimidin-4-yl)-1H-pyrrole-3-carboxamide]: the IC50 in assay [1] (setting [4]) is 250 to 500 nM; in assay [2] it was more than 2500 nM; in assay [3] (setting [5]) it was more than 2500 nM.

Consider `Cc1cnc(Nc2ccc(F)cc2)nc1-n1cnc(C(=O)NC(CN)c2cccc(Cl)c2)c1` (stereo not drawn) [Example 177, N-(2-amino-1-(3-chlorophenyl)ethyl)-1-(2-((4-fluorophenyl)amino)-5-methylpyrimidin-4-yl)-1H-imidazole-4-carboxamide], for which the IC50 was 100 to 250 nM in assay [1] (setting [4]), 100 to 250 nM in assay [2] and not above 100 nM in assay [3] (setting [5]).

Take `Cc1cnc(Nc2ccc(F)c(N3CCOCC3)c2)nc1-n1ccc(C(=O)NC(CO)c2cccc(Cl)c2)c1` (stereo not drawn) [Example 175, N-(1-(3-chlorophenyl)-2-hydroxyethyl)-1-(2-((4-fluoro-3-morpholinophenyl)amino)-5-methylpyrimidin-4-yl)-1H-pyrrole-3-carboxamide]: the IC50 in assay [1] (setting [4]) is 100 to 250 nM; in assay [2] it was 250 to 500 nM; in assay [3] (setting [5]) it was not above 100 nM.

On to `COc1ccc(Nc2ncc(C)c(-n3ccc(C(=O)NC(CO)c4cccc(Cl)c4)c3)n2)cc1OCCCN(C)C` (stereo not drawn) [Example 184, N-(1-(3-chlorophenyl)-2-hydroxyethyl)-1-(2-((3-(3-(dimethylamino)propoxy)-4-methoxyphenyl)amino)-5-methylpyrimidin-4-yl)-1H-pyrrole-3-carboxamide], for which the IC50 fell in the range of 500 to 2500 nM in assay [1] (setting [4]), 250 to 500 nM in assay [2] and 500 to 2500 nM in assay [3] (setting [5]).

`CC(=O)OCc1c(Cl)cccc1CNC(=O)c1cn(-c2nc(N[C@H]3CCOC3)ncc2C)cn1` [Example 342, (S)-2-chloro-6-((1-(5-methyl-2-((tetrahydrofuran-3-yl)amino)pyrimidin-4-yl)-1H-imidazole-4-carboxamido)-methyl)benzyl acetate]: the figures for the IC50 in assay [1] (setting [5]), in assay [2] and in assay [3] (setting [5]) were 100 to 250 nM, not above 100 nM and not above 100 nM, respectively.

Turning to `CC[C@@H](CO)Nc1ncc(C)c(-n2ccc(C(=O)NC(CO)c3cccc(Cl)c3)c2)n1` (stereo partly drawn) [Example 146, N-(1-(3-chloro-phenyl)-2-hydroxy-ethyl)-1-(2-(((S)-1-hydroxy-butan-2-yl)amino)-5-methyl-pyrimidin-4-yl)-1H-pyrrole-3-carboxamide], the IC50 was in the range of 100 to 250 nM in assay [1] (setting [4]), 500 to 2500 nM in assay [2] and 500 to 2500 nM in assay [3] (setting [5]).
